Measurements as given in patent US6423704B1, “Substituted 4-(1H-benzimidazol-2-yl)[1,4]diazepanes useful for the treatment of allergic diseases” (Aventis Pharmaceuticals Inc., priority 1995, dated 2002).
Where a name gives a salt, the structure may show the parent alone.

Row | melting point [°C] | Compound
1 | 90 to 100 | CCOCCn1c(N2CCCN(CCC3(c4ccc(OC)c(OC)c4)CCN(C(=O)c4cc(OC)c(OC)c(OC)c4)C3)CC2)nc2ccccc21 (centres unmarked) (as salt: salt) [Example 1, 1-(3,4,5-Trimethoxybenzoyl)-3-(2-(4-(1-(2-ethoxyethyl)-1H-benzimidazol-2-yl)[1,4]diazepan-1-yl)ethyl)-3-(3,4-dimethoxyphenyl)pyrrolidine]
2 | 40 to 42 | CCOCCn1c(N2CCCN(CCC3(c4ccccn4)CCN(C(=O)c4cc(OC)c(OC)c(OC)c4)C3)CC2)nc2ccccc21 (centres unmarked) [Example 32, 1-(3,4,5-Trimethoxybenzoyl)-3-(2-(4-(1-(2-ethoxyethyl)-1H-benzimidazol-2-yl)[1,4]diazepan-1-yl)ethyl)-3-(pyrid-2-yl)pyrrolidine]
